# In patent EP0489581A2, “Cosmetic composition” (UNILEVER PLC, priority 1990, dated 1992):
# Tested on: skin surface
# Experiment: Body shampoo streak of 0.1% EtNic against placebo on the other side (erythema meter, Cyclops pyrometer)
# Assay type: in vivo, human
# Set-up: ERYTHEMA METER AN / ERYTHEMA METER FA / ERYTHEMA METER UA / ERYTHEMA METER BR / ERYTHEMA METER SH / ERYTHEMA METER WA / ERYTHEMA METER HI / ERYTHEMA METER TH / ERYTHEMA METER CA: scale not given here; TEMPERATURE CHANGE FA / TEMPERATURE CHANGE UA / TEMPERATURE CHANGE BR / TEMPERATURE CHANGE SH / TEMPERATURE CHANGE WA / TEMPERATURE CHANGE HI / TEMPERATURE CHANGE TH / TEMPERATURE CHANGE CA / TEMPERATURE CHANGE AN: unit not given here
# Details: for ERYTHEMA METER AN / TEMPERATURE CHANGE AN / ERYTHEMA METER CA / TEMPERATURE CHANGE CA / ERYTHEMA METER HI / TEMPERATURE CHANGE HI / ERYTHEMA METER FA / TEMPERATURE CHANGE FA / ERYTHEMA METER BR / TEMPERATURE CHANGE BR / ERYTHEMA METER SH / TEMPERATURE CHANGE SH / ERYTHEMA METER TH / TEMPERATURE CHANGE TH / ERYTHEMA METER UA / TEMPERATURE CHANGE UA / ERYTHEMA METER WA / TEMPERATURE CHANGE WA: 0.1% EtNic; for ERYTHEMA METER AN / TEMPERATURE CHANGE AN: ankle; for ERYTHEMA METER CA / TEMPERATURE CHANGE CA: calf; for ERYTHEMA METER HI / TEMPERATURE CHANGE HI: hip; for ERYTHEMA METER FA / TEMPERATURE CHANGE FA: mid forearm; for ERYTHEMA METER BR / TEMPERATURE CHANGE BR: side breast; for ERYTHEMA METER SH / TEMPERATURE CHANGE SH: side shoulder; for ERYTHEMA METER TH / TEMPERATURE CHANGE TH: thigh; for ERYTHEMA METER UA / TEMPERATURE CHANGE UA: upper arm; for ERYTHEMA METER WA / TEMPERATURE CHANGE WA: waist
# Method: A subject showered in the conventional way but without shampoo or soap. The redness and temperature of the skin surface was measured at symmetrical points from the mid forearm down the body to the ankle, after the excess water had been removed by light towelling. The person re-showered and between 2 and 3 grammes of shampoo according to Example 5 was streaked down one side of the body in a broad line. The body shampoo was rubbed into a lather periodically during the two minutes. A placebo shampoo of corresponding composition was applied first to one side of the body and then the time started when the shampoo with the ethyl nicotinate was applied to the other side. […] The redness was measured with the erythema meter whilst the temperature was measured with a Cyclops pyrometer at ten sites on each side. The time was taken as the mean of the two times for each pair of sites. The time course was followed for about 50 minutes. After about 210 minutes the experiment was repeated, but treating the opposite sides. The result shown below are the differences in redness and temperature of the corresponding sites.
# [1] = left hand side, mean time 0.00 (baseline), difference of corresponding sites
# [2] = left hand side, mean time 17.56, difference of corresponding sites
# [3] = left hand side, mean time 31.56, difference of corresponding sites
# [4] = left hand side, mean time 44.89, difference of corresponding sites
# [5] = left hand side, mean time 59.61, difference of corresponding sites
# [6] = left hand side, mean time 77.21, difference of corresponding sites
# [7] = left hand side, time 10.00, mean time 10.37, difference of corresponding sites
# [8] = left hand side, time 25.00, mean time 24.98, difference of corresponding sites
# [9] = left hand side, time 38.00, mean time 38.30, difference of corresponding sites
# [10] = left hand side, time 53.00, mean time 52.87, difference of corresponding sites
# [11] = right hand side, mean time 0.00 (baseline), difference of corresponding sites
# [12] = right hand side, time 10.00, mean time 9.79, difference of corresponding sites
# [13] = right hand side, time 26.00, mean time 26.13, difference of corresponding sites
# [14] = right hand side, time 42.00, mean time 42.25, difference of corresponding sites
# [15] = right hand side, time 210.00, mean time 209.78, difference of corresponding sites
# [16] = all the sites, shampoo according to Example 5, two minutes
compound,measurement,setting,value
"CCOC(=O)c1cccnc1 [EtNic, ethyl nicotinate]",ERYTHEMA METER AN,[1],-0.53
same,TEMPERATURE CHANGE AN,[1],-0.10
same,TEMPERATURE CHANGE AN,[2],0.30
same,TEMPERATURE CHANGE AN,[3],-0.20
same,TEMPERATURE CHANGE AN,[4],0.70
same,TEMPERATURE CHANGE AN,[5],0.80
same,TEMPERATURE CHANGE AN,[6],0.30
same,ERYTHEMA METER AN,[7],0.29
same,ERYTHEMA METER AN,[8],0.56
same,ERYTHEMA METER AN,[9],-0.43
same,ERYTHEMA METER AN,[10],-0.25
same,ERYTHEMA METER CA,[1],-0.26
same,TEMPERATURE CHANGE CA,[1],-0.30
same,TEMPERATURE CHANGE CA,[2],2.90
same,TEMPERATURE CHANGE CA,[3],2.30
same,TEMPERATURE CHANGE CA,[4],1.10
same,TEMPERATURE CHANGE CA,[5],0.90
same,TEMPERATURE CHANGE CA,[6],0.50
same,ERYTHEMA METER CA,[7],0.26
same,ERYTHEMA METER CA,[8],0.41
same,ERYTHEMA METER CA,[9],-0.17
same,ERYTHEMA METER CA,[10],-0.12
same,ERYTHEMA METER HI,[1],0.03
same,TEMPERATURE CHANGE HI,[1],0.10
same,TEMPERATURE CHANGE HI,[2],1.10
same,TEMPERATURE CHANGE HI,[3],3.70
same,TEMPERATURE CHANGE HI,[4],3.30
same,TEMPERATURE CHANGE HI,[5],2.90
same,TEMPERATURE CHANGE HI,[6],2.20
same,ERYTHEMA METER HI,[7],0.74
same,ERYTHEMA METER HI,[8],0.31
same,ERYTHEMA METER HI,[9],0.12
same,ERYTHEMA METER HI,[10],0.13
same,ERYTHEMA METER FA,[1],-0.65
same,TEMPERATURE CHANGE FA,[1],-0.20
same,TEMPERATURE CHANGE FA,[2],-0.50
same,TEMPERATURE CHANGE FA,[3],0.20
same,TEMPERATURE CHANGE FA,[4],-0.30
same,TEMPERATURE CHANGE FA,[5],0.20
same,TEMPERATURE CHANGE FA,[6],0.00
same,ERYTHEMA METER FA,[7],0.39
same,ERYTHEMA METER FA,[8],0.00
same,ERYTHEMA METER FA,[9],-0.06
same,ERYTHEMA METER FA,[10],0.05
same,ERYTHEMA METER BR,[1],-0.12
same,TEMPERATURE CHANGE BR,[1],-1.10
same,TEMPERATURE CHANGE BR,[2],4.80
same,TEMPERATURE CHANGE BR,[3],4.80
same,TEMPERATURE CHANGE BR,[4],4.30
same,TEMPERATURE CHANGE BR,[5],1.70
same,TEMPERATURE CHANGE BR,[6],1.00
same,ERYTHEMA METER BR,[7],1.09
same,ERYTHEMA METER BR,[8],0.71
same,ERYTHEMA METER BR,[9],0.91
same,ERYTHEMA METER BR,[10],0.41
same,ERYTHEMA METER SH,[1],0.00
same,TEMPERATURE CHANGE SH,[1],0.40
same,TEMPERATURE CHANGE SH,[2],3.40
same,TEMPERATURE CHANGE SH,[3],4.50
same,TEMPERATURE CHANGE SH,[4],3.30
same,TEMPERATURE CHANGE SH,[5],1.50
same,TEMPERATURE CHANGE SH,[6],0.30
same,ERYTHEMA METER SH,[7],1.08
same,ERYTHEMA METER SH,[8],1.06
same,ERYTHEMA METER SH,[9],0.77
same,ERYTHEMA METER SH,[10],0.38
same,ERYTHEMA METER TH,[1],-0.23
same,TEMPERATURE CHANGE TH,[1],0.10
same,TEMPERATURE CHANGE TH,[2],3.70
same,TEMPERATURE CHANGE TH,[3],3.20
same,TEMPERATURE CHANGE TH,[4],2.50
same,TEMPERATURE CHANGE TH,[5],1.90
same,TEMPERATURE CHANGE TH,[6],1.30
same,ERYTHEMA METER TH,[7],0.47
same,ERYTHEMA METER TH,[8],0.43
same,ERYTHEMA METER TH,[9],0.28
same,ERYTHEMA METER TH,[10],0.17
same,ERYTHEMA METER UA,[1],-0.28
same,TEMPERATURE CHANGE UA,[1],0.00
same,TEMPERATURE CHANGE UA,[2],3.10
same,TEMPERATURE CHANGE UA,[3],3.60
same,TEMPERATURE CHANGE UA,[4],2.70
same,TEMPERATURE CHANGE UA,[5],1.80
same,TEMPERATURE CHANGE UA,[6],1.40
same,ERYTHEMA METER UA,[7],1.35
same,ERYTHEMA METER UA,[8],0.67
same,ERYTHEMA METER UA,[9],0.82
same,ERYTHEMA METER UA,[10],0.23
same,ERYTHEMA METER WA,[1],0.03
same,TEMPERATURE CHANGE WA,[1],-0.30
same,TEMPERATURE CHANGE WA,[2],4.80
same,TEMPERATURE CHANGE WA,[3],6.80
same,TEMPERATURE CHANGE WA,[4],6.40
same,TEMPERATURE CHANGE WA,[5],5.00
same,TEMPERATURE CHANGE WA,[6],3.60
same,ERYTHEMA METER WA,[7],0.66
same,ERYTHEMA METER WA,[8],0.44
same,ERYTHEMA METER WA,[9],0.79
same,ERYTHEMA METER WA,[10],0.05
same,ERYTHEMA METER AN,[11],0.08
same,ERYTHEMA METER AN,[12],0.62
same,ERYTHEMA METER AN,[13],0.57
same,ERYTHEMA METER AN,[14],0.57
same,ERYTHEMA METER AN,[15],0.53
same,ERYTHEMA METER CA,[11],0.06
same,ERYTHEMA METER CA,[12],0.87
same,ERYTHEMA METER CA,[13],0.75
same,ERYTHEMA METER CA,[14],0.58
same,ERYTHEMA METER CA,[15],0.26
same,ERYTHEMA METER HI,[11],0.44
same,ERYTHEMA METER HI,[12],0.92
same,ERYTHEMA METER HI,[13],0.55
same,ERYTHEMA METER HI,[14],0.50
same,ERYTHEMA METER HI,[15],-0.03
same,ERYTHEMA METER FA,[11],0.20
same,ERYTHEMA METER FA,[12],-0.28
same,ERYTHEMA METER FA,[13],0.51
same,ERYTHEMA METER FA,[14],0.41
same,ERYTHEMA METER FA,[15],0.65
same,ERYTHEMA METER BR,[11],0.06
same,ERYTHEMA METER BR,[12],1.20
same,ERYTHEMA METER BR,[13],1.48
same,ERYTHEMA METER BR,[14],0.72
same,ERYTHEMA METER BR,[15],0.12
same,ERYTHEMA METER SH,[11],0.12
same,ERYTHEMA METER SH,[12],1.81
same,ERYTHEMA METER SH,[13],1.61
same,ERYTHEMA METER SH,[14],0.81
same,ERYTHEMA METER SH,[15],0.00
same,ERYTHEMA METER TH,[11],0.07
same,ERYTHEMA METER TH,[12],0.87
same,ERYTHEMA METER TH,[13],0.43
same,ERYTHEMA METER TH,[14],0.04
same,ERYTHEMA METER TH,[15],0.23
same,ERYTHEMA METER UA,[11],0.38
same,ERYTHEMA METER UA,[12],0.89
same,ERYTHEMA METER UA,[13],1.40
same,ERYTHEMA METER UA,[14],0.74
same,ERYTHEMA METER UA,[15],0.28
same,ERYTHEMA METER WA,[11],0.06
same,ERYTHEMA METER WA,[12],1.16
same,ERYTHEMA METER WA,[13],1.09
same,ERYTHEMA METER WA,[14],0.70
same,ERYTHEMA METER WA,[15],-0.03
same,redness,[16],increase
same,temperature,[16],increase
same,maximum temperature difference,at the waist,seven
